Test results: patent US8952034B2, “Fused heterocyclic compounds as ion channel modulators” (Gilead Sciences, Inc., priority 2009, dated 2015)

Biological target: wild-type human cardiac sodium channel, hNav1.5 (Homo sapiens, UniProt Q14524)
Test: Late INa screening assay (automated whole cell patch clamp, PatchXpress)
Format: cell-based
Settings: HEK293 cells expressing hNav1.5, late INa generated with 10 μM Tefluthrin (or 50 nM ATX II); for inhibition at 1 µM: compound at 1 μM, read-out: LateINa_1 uM (percent block of late INa); for inhibition at 10 µM: compound at 10 μM, read-out: LateINa_10 uM (percent block of late INa)
Procedure, shortened: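 Late sodium current through wild-type human hNav1.5 stably expressed in HEK293 cells (no beta subunits) was recorded by automated whole-cell patch clamp on a PatchXpress 7000A at 24-27° C. Late INa was induced with 10 μM Tefluthrin or 50 nM ATX II. Cells were stepped from −120 mV to −20 mV for 250 ms at 0.1 Hz, and percent block was normalized to current in Na-free extracellular solution.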

wild-type human cardiac sodium channel, hNav1.5, sequence (Q14524 whole entry): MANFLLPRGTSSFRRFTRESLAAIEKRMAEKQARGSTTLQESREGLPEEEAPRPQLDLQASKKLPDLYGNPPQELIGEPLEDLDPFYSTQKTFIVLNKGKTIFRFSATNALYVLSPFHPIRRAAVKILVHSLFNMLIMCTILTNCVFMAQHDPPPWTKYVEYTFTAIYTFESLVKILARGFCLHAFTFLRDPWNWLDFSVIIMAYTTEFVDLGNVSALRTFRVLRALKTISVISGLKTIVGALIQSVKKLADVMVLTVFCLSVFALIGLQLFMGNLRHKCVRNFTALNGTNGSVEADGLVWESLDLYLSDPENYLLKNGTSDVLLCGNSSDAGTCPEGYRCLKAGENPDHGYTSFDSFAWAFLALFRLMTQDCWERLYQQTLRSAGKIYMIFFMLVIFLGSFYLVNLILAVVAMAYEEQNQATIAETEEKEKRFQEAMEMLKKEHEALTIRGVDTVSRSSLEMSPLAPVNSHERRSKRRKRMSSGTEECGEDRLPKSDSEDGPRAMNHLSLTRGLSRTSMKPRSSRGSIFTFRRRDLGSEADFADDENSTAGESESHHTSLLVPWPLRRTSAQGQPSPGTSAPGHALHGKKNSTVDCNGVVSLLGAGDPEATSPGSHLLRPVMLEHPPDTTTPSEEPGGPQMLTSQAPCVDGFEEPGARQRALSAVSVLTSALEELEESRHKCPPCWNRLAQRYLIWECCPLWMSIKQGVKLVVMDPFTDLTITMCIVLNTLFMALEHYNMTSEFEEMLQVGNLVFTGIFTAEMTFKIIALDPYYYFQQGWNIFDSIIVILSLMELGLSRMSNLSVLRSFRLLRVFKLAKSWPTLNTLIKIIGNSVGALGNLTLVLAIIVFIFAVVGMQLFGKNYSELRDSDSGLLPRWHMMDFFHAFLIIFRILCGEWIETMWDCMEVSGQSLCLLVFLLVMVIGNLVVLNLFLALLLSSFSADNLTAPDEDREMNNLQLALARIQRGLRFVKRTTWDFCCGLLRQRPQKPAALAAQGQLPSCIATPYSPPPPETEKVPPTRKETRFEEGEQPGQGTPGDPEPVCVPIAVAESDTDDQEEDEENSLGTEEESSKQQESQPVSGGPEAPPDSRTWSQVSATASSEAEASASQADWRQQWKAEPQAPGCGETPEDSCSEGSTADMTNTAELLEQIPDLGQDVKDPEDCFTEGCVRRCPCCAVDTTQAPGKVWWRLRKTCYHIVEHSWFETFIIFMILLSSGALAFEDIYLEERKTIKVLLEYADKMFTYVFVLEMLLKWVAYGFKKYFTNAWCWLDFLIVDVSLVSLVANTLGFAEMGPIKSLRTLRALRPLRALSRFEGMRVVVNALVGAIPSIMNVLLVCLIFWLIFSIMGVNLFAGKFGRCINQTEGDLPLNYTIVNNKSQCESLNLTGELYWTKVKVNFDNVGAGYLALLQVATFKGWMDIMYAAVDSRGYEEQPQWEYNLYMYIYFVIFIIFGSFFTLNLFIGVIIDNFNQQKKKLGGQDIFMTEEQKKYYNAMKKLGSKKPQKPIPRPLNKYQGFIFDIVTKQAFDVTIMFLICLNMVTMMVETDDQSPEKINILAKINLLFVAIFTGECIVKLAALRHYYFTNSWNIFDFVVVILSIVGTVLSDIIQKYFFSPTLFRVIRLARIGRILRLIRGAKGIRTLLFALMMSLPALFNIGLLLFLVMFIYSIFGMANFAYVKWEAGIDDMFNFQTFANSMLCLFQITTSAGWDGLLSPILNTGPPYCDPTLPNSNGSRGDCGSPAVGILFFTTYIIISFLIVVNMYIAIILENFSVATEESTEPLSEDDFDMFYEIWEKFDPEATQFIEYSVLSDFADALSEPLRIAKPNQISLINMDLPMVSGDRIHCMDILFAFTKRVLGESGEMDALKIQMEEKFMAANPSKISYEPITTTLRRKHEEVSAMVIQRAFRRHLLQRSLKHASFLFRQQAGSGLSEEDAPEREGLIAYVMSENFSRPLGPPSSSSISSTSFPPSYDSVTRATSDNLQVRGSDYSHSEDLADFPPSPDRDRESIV

Row | SMILES | inhibition at 1 µM [%] | inhibition at 10 µM [%]
1 | FC(F)(F)c1nnc2ccc(-c3ccc(Oc4ccncc4)cc3)cn12 [BHN-113, 6-[4-(pyridin-4-yloxy)phenyl]-3-(trifluoromethyl)[1,2,4]triazolo[4,3-a]pyridine] | 20.1 | 
2 | FC1(F)CCN(c2nnc3ccc(-c4ccc(OC(F)(F)F)cc4)cn23)CC1 [BHN-260, 3-(4,4-difluoropiperidin-1-yl)-6-[4-(trifluoromethoxy)phenyl][1,2,4]triazolo[4,3-a]pyridine] | 38.5 | 
3 | FC(F)(F)Oc1ccc(-c2ccc3nnc(-c4ccc(OC(F)(F)F)cc4)n3c2)cc1 [BHN-55, 3,6-bis[4-(trifluoromethoxy)phenyl][1,2,4]triazolo[4,3-a]pyridine] | 89.1 | 90.7
4 | Fc1ccc(Nc2ccc(-c3ccc4nnc(C(F)(F)F)n4c3)cc2)cc1 [BHN-284, 4-fluoro-N-{4-[3-(trifluoromethyl)[1,2,4]triazolo[4,3-a]pyridin-6-yl]phenyl}aniline] | 31.4 | 
5 | Fc1cc(-c2ccc3nnc(C(F)(F)F)n3n2)cc(F)c1Oc1ccccc1 [BHN-210, 6-(3,5-difluoro-4-phenoxyphenyl)-3-(trifluoromethyl)[1,2,4]triazolo[4,3-b]pyridazine] | 33.8 | 
6 | CCNc1nnc2ccc(-c3ccc(OC(F)(F)F)cc3)cn12 [BHN-331, N-ethyl-6-[4-(trifluoromethoxy)phenyl][1,2,4]triazolo[4,3-a]pyridin-3-amine] |  | 38.2
7 | FC(F)(F)c1nnc2ccc(-c3ccc(Oc4cnccn4)cc3)cn12 [BHN-94, 6-[4-(pyrazin-2-yloxy)phenyl]-3-(trifluoromethyl)[1,2,4]triazolo[4,3-a]pyridine] |  | 27.5
8 | Cc1cc(-c2ccc(Oc3ccccc3)cc2)cn2ncnc12 [BHN-349, 8-methyl-6-(4-phenoxyphenyl)[1,2,4]triazolo[1,5-a]pyridine] |  | 65.1
9 | N#Cc1cccc(COC(F)(F)c2nnc3ccc(-c4ccc(OC(F)(F)F)cc4)cn23)c1 [BHN-261, 3-[(difluoro{6-[4-(trifluoromethoxy)phenyl][1,2,4]triazolo[4,3-a]pyridin-3-yl}methoxy)methyl]benzonitrile] | 56.8 | 
10 | FC(F)(F)COc1ccc(-c2ccc3nnc(C(F)(F)F)n3n2)cn1 [BHN-221, 6-[6-(2,2,2-trifluoroethoxy)pyridin-3-yl]-3-(trifluoromethyl)[1,2,4]triazolo[4,3-b]pyridazine] | 55 | 
11 | FC(F)(F)c1nnc2ccc(-c3cccc4ccccc34)cn12 [BHN-120, 6-(naphthalen-1-yl)-3-(trifluoromethyl)[1,2,4]triazolo[4,3-a]pyridine] | 20.4 | 
12 | COCC(F)(F)c1nnc2ccc(C#Cc3ccc(OC(F)(F)F)cc3)cn12 [BHN-309, 3-(1,1-difluoro-2-methoxyethyl)-6-{[4-(trifluoromethoxy)phenyl]ethynyl}[1,2,4]triazolo[4,3-a]pyridine] | 25.2 | 
13 | Clc1ccc(Oc2ccc(-c3ccc4nnnn4n3)cc2)cc1 [BHN-270, 6-[4-(4-chlorophenoxy)phenyl]tetrazolo[1,5-b]pyridazine] | 21.7 | 
14 | N#CC1(c2ccc(-c3ccc4nnc(C(F)(F)F)n4c3)cc2)CCCC1 [BHN-135, 1-{4-[3-(trifluoromethyl)[1,2,4]triazolo[4,3-a]pyridin-6-yl]phenyl}cyclopentanecarbonitrile] | 49.2 | 
15 | FC(F)(F)Cc1nnc2ccc(-c3ccc(Oc4ccccc4)cc3)nn12 [BHN-31, 6-(4-phenoxyphenyl)-3-(2,2,2-trifluoroethyl)[1,2,4]triazolo[4,3-b]pyridazine] | 57.5 | 82.6
16 | O=[N+]([O-])c1cc(F)ccc1Oc1ccc(-c2ccc3nnc(C(F)(F)F)n3c2)cc1 [BHN-110, 6-[4-(4-fluoro-2-nitrophenoxy)phenyl]-3-(trifluoromethyl)[1,2,4]triazolo[4,3-a]pyridine] | 18.2 | 
17 | COc1nnc2ccc(-c3ccc(OC(F)(F)F)cc3)cn12 [BHN-185, 3-methoxy-6-[4-(trifluoromethoxy)phenyl][1,2,4]triazolo[4,3-a]pyridine] | 29.1 | 
18 | FC(F)(F)COCc1nnc2ccc(-c3ccc(OC(F)(F)F)cc3)cn12 [BHN-129, 3-[(2,2,2-trifluoroethoxy)methyl]-6-[4-(trifluoromethoxy)phenyl][1,2,4]triazolo[4,3-a]pyridine] | 48.4 | 
19 | Cc1ccc(C)c(OCC(O)COCC(F)(F)c2nnc3ccc(-c4ccc(OC(F)(F)F)cc4)cn23)c1 (centres unmarked) [BHN-274, 1-(2,2-difluoro-2-{6-[4-(trifluoromethoxy)phenyl][1,2,4]triazolo[4,3-a]pyridin-3-yl}ethoxy)-3-(2,5-dimethylphenoxy)propan-2-ol] | 38.9 | 

Row | SMILES | inhibition at 1 µM [%] | inhibition at 10 µM [%]
20 | FC(F)(F)Oc1ccc(-c2ccc3nnc(C(F)(F)Cl)n3c2)cc1 [BHN-308, 3-[chloro(difluoro)methyl]-6-[4-(trifluoromethoxy)phenyl][1,2,4]triazolo[4,3-a]pyridine] | 71.2 | 
21 | FC(F)(F)c1nnc2ccc(-c3cnc(C4CC4)nc3)cn12 [BHN-89, 6-(2-cyclopropylpyrimidin-5-yl)-3-(trifluoromethyl)[1,2,4]triazolo[4,3-a]pyridine] |  | 20.5
22 | OC(COCC(F)(F)c1nnc2ccc(-c3ccc(OC(F)(F)F)cc3)cn12)COc1ccccc1Cl (centres unmarked) [BHN-267, 1-(2-chlorophenoxy)-3-(2,2-difluoro-2-{6-[4-(trifluoromethoxy)phenyl][1,2,4]triazolo[4,3-a]pyridin-3-yl}ethoxy)propan-2-ol] | 26.5 | 
23 | Cc1nccn1-c1ccccc1COC(F)(F)c1nnc2ccc(-c3ccc(OC(F)(F)F)cc3)cn12 [BHN-312, 3-(difluoro{[2-(2-methyl-1H-imidazol-1-yl)benzyl]oxy}methyl)-6-[4-(trifluoromethoxy)phenyl][1,2,4]triazolo[4,3-a]pyridine] | 51.4 | 
24 | NC(=O)c1nnc2ccc(-c3ccc(OC(F)(F)F)cc3)cn12 [BHN-265, 6-[4-(trifluoromethoxy)phenyl][1,2,4]triazolo[4,3-a]pyridine-3-carboxamide] | 15.3 | 
25 | FC(F)(F)Oc1ccc(-c2ccc3nnc(C(F)(F)OCc4cccnc4)n3c2)cc1 [BHN-204, 3-[difluoro(pyridin-3-ylmethoxy)methyl]-6-[4-(trifluoromethoxy)phenyl][1,2,4]triazolo[4,3-a]pyridine] | 43.9 | 
26 | COc1ccc(-c2ccc3nnc(-c4cccc(C#N)c4)n3n2)cc1 [BHN-45, 3-[6-(4-methoxyphenyl)[1,2,4]triazolo[4,3-b]pyridazin-3-yl]benzonitrile] |  | 36.3
27 | COc1cc(-c2ccc(OC(F)(F)F)cc2)cn2c(C(F)F)nnc12 [BHN-126, 3-(difluoromethyl)-8-methoxy-6-[4-(trifluoromethoxy)phenyl][1,2,4]triazolo[4,3-a]pyridine] | 26.9 | 
28 | Cc1cccc(C)c1OCCOC(F)(F)c1nnc2ccc(-c3ccc(OC(F)(F)F)cc3)cn12 [BHN-285, 3-{[2-(2,6-dimethylphenoxy)ethoxy](difluoro)methyl}-6-[4-(trifluoromethoxy)phenyl][1,2,4]triazolo[4,3-a]pyridine] | 68 | 
29 | c1ccc(Oc2ccc(-c3ccc4nncn4n3)cc2)cc1 [BHN-22, 6-(4-phenoxyphenyl)[1,2,4]triazolo[4,3-b]pyridazine] |  | 59
30 | COCC(F)(F)c1nnc2ccc(-c3ccc(OC(F)(F)F)c(F)c3)cn12 [BHN-232, 3-(1,1-difluoro-2-methoxyethyl)-6-[3-fluoro-4-(trifluoromethoxy)phenyl][1,2,4]triazolo[4,3-a]pyridine] | 45.3 | 
31 | Fc1cc(-c2ccc3nnc(C(F)F)n3n2)ccc1OC(F)(F)F [BHN-253, 3-(difluoromethyl)-6-[3-fluoro-4-(trifluoromethoxy)phenyl][1,2,4]triazolo[4,3-b]pyridazine] | 39.4 | 
32 | Cn1ccc(COC(F)(F)c2nnc3ccc(-c4ccc(OC(F)(F)F)cc4)cn23)n1 [BHN-301, 3-{difluoro[(1-methyl-1H-pyrazol-3-yl)methoxy]methyl}-6-[4-(trifluoromethoxy)phenyl][1,2,4]triazolo[4,3-a]pyridine] | 29.9 | 
33 | Nc1cc(-c2ccc(OC(F)(F)F)cc2)cn2c(-c3ccccc3)nnc12 [BHN-52, 3-phenyl-6-[4-(trifluoromethoxy)phenyl][1,2,4]triazolo[4,3-a]pyridin-8-amine] |  | 44.9
34 | Cc1ccc(COCc2nnc3ccc(-c4ccc(OC(F)(F)F)cc4)cn23)c(C)c1 [BHN-251, 3-{[(2,4-dimethylbenzyl)oxy]methyl}-6-[4-(trifluoromethoxy)phenyl][1,2,4]triazolo[4,3-a]pyridine] | 75.8 | 
35 | COC(=O)c1ccc(-c2ccc3nnc(C(F)(F)F)n3c2)cc1 [BHN-46, methyl 4-[3-(trifluoromethyl)[1,2,4]triazolo[4,3-a]pyridin-6-yl]benzoate] |  | 53.9
36 | FC(F)(F)Oc1ccc(-c2ccc3nnc(COCc4ccc(C(F)(F)F)cc4)n3c2)cc1 [BHN-226, 6-[4-(trifluoromethoxy)phenyl]-3-({[4-(trifluoromethyl)benzyl]oxy}methyl)[1,2,4]triazolo[4,3-a]pyridine] | 59.3 | 
37 | CCOC(=O)c1ccc(-c2nnc3ccc(-c4ccc(OC(F)(F)F)cc4)cn23)cc1 [BHN-86, ethyl 4-{6-[4-(trifluoromethoxy)phenyl][1,2,4]triazolo[4,3-a]pyridin-3-yl}benzoate] | 82.7 | 86.9
38 | CC(C)(O)C#Cc1nnc2ccc(-c3ccc(OC(F)(F)F)cc3)cn12 [BHN-173, 2-methyl-4-{6-[4-(trifluoromethoxy)phenyl][1,2,4]triazolo[4,3-a]pyridin-3-yl}but-3-yn-2-ol] | 30.8 | 
